The source made the active and inactive calls.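 How the source made its calls: active means compounds giving half or more protection of infected cells from virus-caused growth loss, again on retest; inactive means the rest.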
Test system: CEM cells HIV-1 protection, formazan growth assay
Assay: NCI AIDS Antiviral Assay
Details: for IC50: measured here: growth of uninfected CEM cells
Procedure, shortened: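 Soluble formazan readout of cell growth; CEM cells ± HIV-1; 5 drug concs. ≥50% protection → retest; ≥50% again = moderately active; reproducible 100% = confirmed active.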

Row | Structure (SMILES) | EC50 [µM] | IC50 [µM] | outcome
1 | CC(C)CCCC(C)[C@H]1CC[C@@H]2[C@H]3CC[C@H]4C[C@@H](CCC=C(c5cc(Cl)c(OCc6cccc([N+](=O)[O-])c6)c(C(=O)OCc6cccc([N+](=O)[O-])c6)c5)c5cc(Cl)c(OCc6cccc([N+](=O)[O-])c6)c(C(=O)OCc6cccc([N+](=O)[O-])c6)c5)CC[C@]4(C)[C@@H]3CC[C@]12C (some centres not stated) | > 100 | > 100 | 
2 | c1ccc2c(Nc3ncco3)cccc2c1 | > 200 | 162 | 
3 | N#C/C(=C\n1c(=S)[nH]c2ccccc21)c1nc2ccccc2s1 | > 200 | > 200 | 
4 | COC(=O)c1cc2c(cc1CC(Cc1ccc3c(c1)CCC3)C(=O)OC)CCC2 (configuration not stated) | > 200 | 126 | 
5 | ClC1c2ccccc2C2(c3ccccc3)OOC1(c1ccccc1)O2 (configuration not stated) |  |  | inactive
6 | CC12C3C4C1C1C2C3C41CO (configuration not stated) | > 200 | > 200 | 
7 | CC(C)C(C=O)C(O)(C(F)(F)F)C(F)(F)F (configuration not stated) | > 200 | > 200 | 
8 | CC(=O)N1N=C(c2ccc3ccccc3c2O)CC1c1cccs1 (configuration not stated) | > 200 | 12 | 
9 | COc1cc2cc(C(=O)N3CC(CCl)c4ccc([N+](C)(C)Cc5ccc([N+](=O)[O-])cc5)cc43)[nH]c2c(OC)c1OC (configuration not stated) | > 200 | 7.76 | 
10 | CN(C)CCN1C(=O)CC(c2ccccc2)Sc2ccccc21 (configuration not stated) | > 245 | > 245 | 
11 | CCOc1ccc(NC(=O)C(=O)NO)cc1 | > 302 | 178 | 
12 | CN(Cc1cnc2nc(N)nc(N)c2n1)c1ccc(C(=O)N[C@@H](CCC(=O)O)C(=O)O)cc1 | > 1.51 | 0.00372 | 
13 | CCOC(=O)/C(Cl)=C1\SN(C(=O)OCC)N=C1C | > 102 | 10.7 | 
14 | NC(=O)C1CCCN1C(=O)C(Cc1cnc[nH]1)NC(=O)C1CCCC1 (configuration not stated) | > 200 | > 200 | 
15 | COC(=O)C1SC[C@H]2C(=O)N(c3ccccc3)C(=O)N12 (some centres not stated) | > 200 | > 200 | 
16 | Cc1cc(C)nc(NS(=O)(=O)c2ccc(Nc3c4ccccc4nc4c(C(=O)N5CCN(CCO)CC5)cccc34)cc2)n1 | > 36.3 | > 36.3 | 
17 | CN1CCN(C)C12C=CC=CC21CC1 |  |  | inactive
18 | O=[N+]([O-])c1cccc(-c2csc(NNC3=NC/C(=C/c4ccc5c(c4)OCO5)S3)n2)c1 | > 200 | 117 | 
19 | CCCc1cc(=O)oc2c3c(cc(OC(C)C)c12)O[C@H](C)[C@@H](C)/C3=N/O | > 200 | 3.8 | 
20 | CC(=O)N/N=C1/CC[C@@]2(C)C(=CC[C@H]3C4CCC(C(C)CCCC(C)C)[C@@]4(C)CCC32)C1(C)C (some centres not stated) | > 200 | 61.7 | 
21 | CN1CC2(c3ccccc3)CN(C)CC(c3ccccc3)(C1)C2=O | > 112 | > 112 | 

Row | Structure (SMILES) | EC50 [µM] | IC50 [µM] | outcome
22 | O=c1[nH][nH]c(=O)c2[nH]cnc12 |  |  | inactive
23 | C/C(=N/NC(=S)N(C)CCc1ccccn1)c1cnccn1 | > 0.2 | 0.0178 | 
24 | O=C(Cc1ccccc1)N/N=C(\C1=Nc2ccc([N+](=O)[O-])cc2NC1O)C(O)c1ccc([N+](=O)[O-])cc1 (configuration not stated) | > 51.3 | 47.9 | 
25 | COc1ccc2cc1Oc1ccc(cc1)CC1c3cc(c(OC)cc3CCN1C)Oc1c3c(cc4c1C(C2)N(C)CC4)OCO3 (configuration not stated) |  |  | inactive
26 | CCCCC(CC)COC(=O)CC(C(=O)OCC(CC)CCCC)S(=O)(=O)O (configuration not stated) (tested in a mixture with another compound) | > 200 | > 200 | 
27 | O=C(NN1C(=O)C(Cl)C1c1ccc([N+](=O)[O-])cc1)c1ccccc1O (configuration not stated) | > 10.5 | > 10.5 | 
28 | CC1=C2C3=C(C)C(=O)C(C)(C)CC[C@@]3(C)[C@]2(C)CCC(C)(C)C1=O | > 75.9 | > 75.9 | 
29 | C/C(O)=C(/C=N\C(=S)Nc1ccc(Cl)c(Cl)c1)C(=O)Nc1ccccc1C | > 79.4 | 40.7 | 
30 | NC1=CN(Cc2ccccc2)C2=N/C(=C\c3ccco3)C(=O)N12 | > 200 | 191 | 
31 | COc1cc(/C=C(\NC(=O)c2ccccc2)c2nc3ccc([N+](=O)[O-])cc3[nH]2)cc(OC)c1OC |  |  | inactive
32 | COC(=O)c1cc(C(=CCCCCBr)c2cc(Cl)c(OC)c(C(=O)OC)c2)cc(Cl)c1OC | 45.7 | 151 | 
33 | COc1ccc(-c2nc3c(=O)n(C)c(=O)nc-3n(C)n2)cc1OC | > 20 | 0.447 | 
34 | Cn1c(=O)c2c(ncn2CCCCn2ccnc2[N+](=O)[O-])n(C)c1=O | > 200 | > 200 | 
35 | CS(=O)(=O)c1ccc(SSc2ccc(S(C)(=O)=O)cc2[N+](=O)[O-])c([N+](=O)[O-])c1 |  |  | inactive
36 | CCOC(=O)/C(C#N)=c1/s/c(=C(\O)N/N=C/c2ccc(OC)cc2)c(=N)n1-c1ccccc1 | > 4.27 | > 4.27 | 
37 | O=[N+]([O-])C(=C/c1ccccc1)/C(=C\c1ccccc1)[N+](=O)[O-] | > 200 | 15.5 | 
38 | CC1(CO)C(O)CCC2(C)C1C(O)CC1CC3CC12CCC3(O)CO (configuration not stated) | > 708 | 138 | 
39 | CC12Nc3ccccc3N1C(=O)c1ccccc12 (configuration not stated) | > 200 | 107 | 
40 | COC(=O)c1c(C(=O)OC)c(-c2ccccc2)n(-c2ccccc2)c(=O)c1-c1ccccc1 |  |  | inactive
41 | NC(Cc1csc2ccccc12)C(=O)O (configuration not stated) | > 200 | 19.5 | 
42 | C/C(Cl)=N/OC(=O)Nc1ccc(S(N)(=O)=O)c(C)c1 | > 20 | 8.71 | 

Row | Structure (SMILES) | EC50 [µM] | IC50 [µM] | outcome
43 | COC(=O)[C@]1(C)CCC[C@]2(C)[C@H]3CC4OO[C@@]3(CC[C@H]21)[C@H]1O[C@@]41C(C)C |  |  | inactive
44 | CC(C)(C)OC(=O)NCCNC(=O)OCc1ccccc1 | > 200 | > 200 | 
45 | Cc1c2c(n(CCc3ccc(Cl)cc3)c1C)NN=C(C#N)S2(=O)=O | > 200 | 85.1 | 
46 | CCCCCC/C=C\CCCCCCCCCc1c(O)c(OC)cc(O)c1CN(C)C | > 200 | 2.4 | 
47 | Cc1ccccc1C=NC12CC3CC(CC(C3)C1)C2 | > 53.7 | > 53.7 | 
48 | CC1(C)OC(=O)C(=Cc2cccc(F)c2)C(=O)O1 | > 525 | > 525 | 
49 | CN1CCCC1=NC#N | > 200 | > 200 | 
50 | O=[N+]([O-])c1cccnc1S(=O)(=O)c1ccccc1 | > 490 | 1.1 | 
51 | CC1C2CC(C(S(=O)(=O)O)C2=O)C1(C)C (configuration not stated) | > 1000 | > 1000 | 
52 | COc1ccc(OC)c2[nH]c(Sc3c([N+](=O)[O-])ncn3C)nc12 | > 21.4 | 7.08 | 
53 | O=P1(Oc2ccccc2)OC[C@H]2S[C@H](c3ccccc3)C[C@H]2O1 (some centres not stated) | > 200 | > 200 | 
54 | CC(=O)C1C(=O)C(=O)N(c2cccc(C)c2C)C1=O (configuration not stated) | > 200 | > 200 | 
55 | CCN(CC)CCCNC(=O)C1COc2cc(-c3cc(=O)c4ccccc4o3)ccc2O1 (configuration not stated) |  |  | inactive
56 | CC[C@H](NC(=O)OC(C)(C)C)C(=O)NCP(=O)(OCc1ccc([N+](=O)[O-])cc1)OCc1ccc([N+](=O)[O-])cc1 | > 200 | 33.9 | 
57 | CCN(CC)C(=O)SCCSC(=O)N(CC)CC | > 100 | > 100 | 
58 | CC1(Cl)C(=O)NC(=O)NC1O (configuration not stated) | > 200 | > 200 | 
59 | O=C1N[C@@H](Cc2ccccc2)C(=O)N2CCCC[C@H]12 |  |  | inactive
60 | CSC(Cc1ccc2c(c1)Sc1ccccc1O2)=[N+]1CCOCC1 | > 200 | 44.7 | 
61 | Cn1c(=O)c([N+](=O)[O-])c2[nH]ncn2c1=O | > 200 | > 200 | 

Source: PubChem BioAssay AID179 (DTP/NCI, 2004)
